{
  "source": "ChEMBL document CHEMBL3352700",
  "about": "(Bioorg Med Chem Lett, 2015)",
  "key": {"[1]": {"assay": "Effective permeability by PAMPA method", "format": "ADME", "conditions": "read-out: Peff"}, "[2]": {"assay": "Cmax in IGS rat at 3 mg/kg, po administered as single dose", "format": "ADME, organism-based", "set-up": "dose 3 mg/kg, route oral", "conditions": "in vivo"}, "Rattus norvegicus [3]": {"test_system": "Rattus norvegicus", "assay": "AUC (infinity) in IGS rat at 3 mg/kg, po administered as single dose", "format": "ADME, organism-based, Plasma", "set-up": "time infinity, dose 3 mg/kg, route oral", "conditions": "in vivo"}, "[4]": {"assay": "Oral bioavailability in IGS rat at 3 mg/kg administered as single dose", "format": "ADME, organism-based", "conditions": "in vivo"}, "Rattus norvegicus [5]": {"test_system": "Rattus norvegicus", "assay": "Volume of distribution at steady state in IGS rat at 3 mg/kg, po administered as single dose", "format": "ADME, organism-based", "set-up": "dose 3 mg/kg, route oral", "conditions": "in vivo"}, "[6]": {"assay": "Cmax in Beagle Marshall dog at 1 mg/kg, po administered as single dose", "format": "ADME, organism-based, Canis lupus familiaris", "set-up": "dose 1 mg/kg, route oral", "conditions": "in vivo"}, "[7]": {"assay": "AUC (infinity) in Beagle Marshall dog at 1 mg/kg, po administered as single dose", "format": "ADME, organism-based, Canis lupus familiaris", "set-up": "time infinity, dose 1 mg/kg, route oral", "conditions": "plasma"}, "[8]": {"assay": "Oral bioavailability in Beagle Marshall dog at 1 mg/kg administered as single dose", "format": "ADME, organism-based, Canis lupus familiaris", "conditions": "in vivo"}, "[9]": {"assay": "Volume of distribution at steady state in Beagle Marshall dog at 1 mg/kg administered as single dose", "format": "ADME, organism-based, Canis lupus familiaris", "set-up": "dose 1 mg/kg", "conditions": "in vivo, read-out: Vdss"}, "[10]": {"assay": "AUC (infinity) in IGS rat at 1 mg/kg, iv administered as single dose", "format": "ADME, organism-based", "set-up": "time infinity, dose 1 mg/kg, route intravenous", "conditions": "plasma"}, "[11]": {"assay": "Cmax in rat at 300 mg/kg, po", "format": "ADME, organism-based", "set-up": "dose 300 mg/kg, route oral", "conditions": "in vivo"}},
  "data": [
    {"compound": "CCN1CC(S(=O)(=O)c2ccc3c(c2)nc(CC(C)(C)C)n3CCN(C)C)C1", "values": [
      {"measurement": "Papp", "setting": "[1]", "result": 10, "unit": "×10⁻⁶ cm/s"}
    ]},
    {"compound": "CN(C)CCn1c(CC(C)(C)C)nc2cc(S(=O)(=O)C3CN(CCO)C3)ccc21", "values": [
      {"measurement": "Papp", "setting": "[1]", "result": 1.5, "unit": "×10⁻⁶ cm/s"},
      {"measurement": "Cmax", "setting": "[2]", "result": 38, "unit": "ng/mL"},
      {"measurement": "AUC", "setting": "Rattus norvegicus [3]", "result": 300, "unit": "ng·h/mL"},
      {"measurement": "bioavailability", "setting": "[4]", "result": 20, "unit": "%"},
      {"measurement": "Vdss", "setting": "Rattus norvegicus [5]", "result": 5.696, "unit": "L/kg"},
      {"measurement": "Cmax", "setting": "[6]", "result": 102, "unit": "ng/mL"},
      {"measurement": "AUC(0-inf)", "setting": "[7]", "result": 1000, "unit": "ng·h/mL"},
      {"measurement": "bioavailability", "setting": "[8]", "result": 72, "unit": "%"},
      {"measurement": "Vd", "setting": "[9]", "result": 5.69, "unit": "L/kg"},
      {"measurement": "AUC(0-inf)", "setting": "[10]", "result": 391, "unit": "ng·h/mL"},
      {"measurement": "Cmax", "setting": "[11]", "result": 1800, "unit": "ng/mL"}
    ]},
    {"compound": "CN(C)CCn1c(CC(C)(C)C)nc2cc(S(=O)(=O)C3CN(CC(F)(F)F)C3)ccc21", "values": [
      {"measurement": "Papp", "setting": "[1]", "result": 18, "unit": "×10⁻⁶ cm/s"}
    ]},
    {"compound": "CN(C)CCn1c(CC(C)(C)C)nc2cc(S(=O)(=O)C3CN(S(C)(=O)=O)C3)ccc21", "values": [
      {"measurement": "Papp", "setting": "[1]", "result": 5.9, "unit": "×10⁻⁶ cm/s"}
    ]},
    {"compound": "CN(C)CCn1c(CC(C)(C)C)nc2cc(S(=O)(=O)C3CN(C(N)=O)C3)ccc21", "values": [
      {"measurement": "Papp", "setting": "[1]", "result": 0.6, "unit": "×10⁻⁶ cm/s"}
    ]},
    {"compound": "CN(C)CCn1c(CC(C)(C)C)nc2cc(S(=O)(=O)C3CN(C)C3)ccc21", "values": [
      {"measurement": "Papp", "setting": "[1]", "result": 7.8, "unit": "×10⁻⁶ cm/s"}
    ]}
  ]
}
